Assay results from ChEMBL document CHEMBL1131390, “Inhibition of lipid peroxidation mediated by indolizines” (Bioorg Med Chem Lett, 1998).

What was measured:
[1] = species on record: Rattus norvegicus; experiment: Compound was tested in vitro for inhibitory activity against lipid peroxidation at concentration 100 uM; assay type: functional, organism-based
[2] = species on record: Rattus norvegicus; experiment: Compound was tested in vitro for inhibitory activity against lipid peroxidation after 30 minutes; assay type: functional; conditions: 0.5 h

**Q.** For `CCCCCCCCCCCCCCCC(=O)Oc1c(-c2ccccc2)c(-c2ccccc2)n2ccc(C=O)cc12`, which inhibition [1] is on record?
**A.** 9%

**Q.** With `COc1c(-c2ccccc2)c(-c2ccccc2)n2ccc(C=O)cc12` as the compound, how does the IC50 [2] read?
**A.** 4.2 µM

**Q.** With `CC(=O)Oc1c(-c2ccccc2)c(-c2ccccc2)n2ccccc12` as the compound, how does the IC50 [2] read?
**A.** 11.8 µM

**Q.** With `O=Cc1ccn2c(-c3ccccc3)c(-c3ccccc3)c(OC(=O)Nc3ccccc3)c2c1` as the compound, how does the IC50 [2] read?
**A.** 3.2 µM

**Q.** Which IC50 [2] does the source give for `CC(=O)Oc1c(-c2ccccc2)c(-c2ccccc2)n2ccc(C(=O)c3ccccc3)cc12` here?
**A.** 2.5 µM

**Q.** How did the IC50 [2] turn out when `CC(=O)Oc1c(-c2ccccc2)c(-c2ccccc2)n2ccc(C(C)=O)cc12` was run?
**A.** 5.3 µM

**Q.** How did the IC50 [2] turn out when `CC(=O)Oc1c(-c2ccccc2)c(-c2ccccc2)n2ncccc12` was run?
**A.** 3.1 µM

**Q.** `CC(=O)Oc1c(-c2ccccc2)c(-c2ccccc2)n2cc(C(C)=O)ccc12` was tested. Which IC50 [2] did it give?
**A.** 3.5 µM

**Q.** Which IC50 [2] does the source give for `CC(=O)Oc1c(-c2ccccc2)c(-c2ccccc2)n2ccc(C=O)cc12` here?
**A.** 2.9 µM

**Q.** For `COC(=O)Oc1c(-c2ccccc2)c(-c2ccccc2)n2ccc(C=O)cc12`, which IC50 [2] is on record?
**A.** 2.6 µM

**Q.** `CC(=O)Oc1c(-c2ccccc2)c(-c2ccccc2)n2ncc3ccccc3c12` was tested. Which inhibition [1] did it give?
**A.** 28%
